Results from patent publication US11168179B2, “Macromolecular transition metal complexes for treatment of cancer and process for their preparation” (FACULDADE DE CIÉNCIAS DA UNIVERSIDADE DE LISBOA, priority 2014, dated 2021).
Where two headings read alike, the source gives them in different places.

How the values were obtained:
[1] = test system: MCF-7 breast adenocarcinoma cells; experiment: MTT cell viability assay, MCF-7; assay type: cell-based, human
Description: (§1) The cell culture was made in flasks containing the medium appropriate to cell proliferation and allowing cell adhesion.
For this, the cells were seeded in 200 μl of complete cell medium in 96-well plates.
Cells were left to adhere for 24 h, followed by the addition of various dilutions in medium (200 μl) of the test compound. The test compound was first solubilized in DMSO and then in the cell medium and added to the cells at concentrations 1-100 μM. The final DMSO concentrations in the medium were lower than 0.5%. After 24 h and 72 h incubation, 37° C./5% CO2, the medium was substituted by 200 μl of the MTT solution (0.5 mg/ml in phosphate buffer—PBS). After 3-4 h incubation, the MTT solution was removed and the formazan crystals formed by the viable cells were dissolved in DMSO (200 μl). […] The cytotoxicity of the test compound was quantified calculating the drug concentration that inhibits the growth of 50% of cells (IC50) (GraphPad Prism software). The assessment was carried out with at least two independent experiments, each comprising six replicates per concentration.
Upon reaching the required confluence, the cells were harvested through addition of a 0.05% trypsin-EDTA solution (Gibco®). […] For this, the cells were seeded in 200 μl of complete cell medium in 96-well plates. […] Cells were left to adhere for 24 h, followed by the addition of various dilutions in medium (200 μl) of the test compound. The test compound was first solubilized in DMSO and then in the cell medium and added to the cells at concentrations 1-100 μM. The final DMSO concentrations in the medium were lower than 0.5%. […] The cytotoxicity of the test compound was quantified calculating the drug concentration that inhibits the growth of 50% of cells (IC50) (GraphPad Prism software). The assessment was carried out with at least two independent experiments, each comprising six replicates per concentration.

[2] = test system: A2780 ovarian carcinoma cells; experiment: MTT cell viability assay, A2780; assay type: cell-based, human; details: 72 h incubation, read-out: IC50 after a 72 h incubation, A2780
Description: (§2) The cultures of human breast (MDA-MB-231; ATCC) and ovarian (A2780, ATCC) carcinoma cell lines, were carried out in DMEM (Gibco) medium containing GlutaMax I (MDA-MB-231) or RPMI (A2780) and were completed with 10% FBS and 1% penicillin-streptomycin and kept at 37° C. in a humidified atmosphere containing 5% de CO2.
as §1
(§3) Upon reaching the required confluence, the cells were harvested through addition of a 0.05% trypsin-EDTA solution (Gibco®). […] For this, the cells were seeded in 200 μl of complete cell medium in 96-well plates. Cell density was 2×10^4 viable cells (MDA-MB-231 and A2780) per well.
(§4) Cells were left to adhere for 24 h, followed by the addition of various dilutions in medium (200 μl) of the test compound. The test compound was first solubilized in DMSO and then in the cell medium and added to the cells at concentrations 1-100 μM. The final DMSO concentrations in the medium were lower than 0.5%. After 24 h and 72 h incubation, 37° C./5% CO2, the medium was substituted by 200 μl of the MTT solution (0.5 mg/ml in phosphate buffer—PBS). After 3-4 h incubation, the MTT solution was removed and the formazan crystals formed by the viable cells were dissolved in DMSO (200 μl). Cell viability was assessed measuring the absorbance at 570 nm, using a plate spectrophotometer.
(§5) The cytotoxicity of the test compound was quantified calculating the drug concentration that inhibits the growth of 50% of cells (IC50) (GraphPad Prism software). The assessment was carried out with at least two independent experiments, each comprising six replicates per concentration. Dose-response curves of cell viability, after a 72 h incubation, are represented in the graphs of the FIGS. 4a and 4b.
Upon reaching the required confluence, the cells were harvested through addition of a 0.05% trypsin-EDTA solution (Gibco®). […] For this, the cells were seeded in 200 μl of complete cell medium in 96-well plates. […]

[3] = test system: MDA-MB-231 human breast carcinoma cells; experiment: MTT cell viability assay, MDA-MB-231; assay type: cell-based; details: 72 h incubation, read-out: IC50 after a 72 h incubation, MDA-MB-231
Description: as §2, §1, §3, §4, §5

glioma U87 cells = details: literature value (J. Biol. Chem. 1997, 272:14041-14044); read-out: value found in the literature for the glioma line; cited from earlier work
[4] = test system: human cells of MCF-7 breast cancer; details: 24 h incubation, versus untreated control cells (100%)
Description: The intrinsic pathway is triggered by intracellular or extracellular stress. The signals that are transduced in response to these stimuli converge mainly to the mitochondria. This organelle integrates the cell death stimuli, inducing mitochondrial permeabilization and consequent release of pro-apoptotic molecules present therein.

MCF-7 cancer cell line [5] = details: 48 h of incubation, 10 μM
Description: This assay is widely used to determine if cells are viable, apoptotic, or necrotic through differences in plasma membrane integrity and permeability. All in all, Annexin V/PI is a commonly used approach for studying cell death (Rieger et al. 2011).
Annexin V a marker of early apoptosis. […] Cisplatin was used as a positive control since it is known to induce apoptosis.

MCF-7 cancer cell line [6] = details: immunofluorescence, versus control cells
Description: In this immunofluorescence assay, Alexa Fluor 488® phalloidin, which is a high-affinity filamentous actin (F-actin) probe conjugated to the green-fluorescent Alexa Fluor® 488 dye was used. In order to obtain nuclear staining DAPI (blue) was used (FIG. 9).

[7] = 72 h incubation, read-out: IC50 after a 72 h incubation, MCF-7
[8] = 24 h incubation, read-out: IC50 after a 24 h incubation, MCF-7

With N.N.[Cl][Pt][Cl] [Cisplatin, reference compound] the IC50 [1, 7] was 28 ± 6 µM, the IC50 [2] was 2 ± 0.1 µM and the IC50 [3] was 39 ± 5 µM. For the same molecule, the IC50 (glioma U87 cells) was 130 ± 53 µM.
Molecule “(2,2′-bipyridine-4,4′-diylbis{methylene}bis(2-{2-(2-hydroxypropanoyloxy)poly(lactic acid)-yl}propanoate)-k^2N,N′)(triphenylphosphane)(η^5-cyclopentadienyl)ruthenium(II) triflate [Compound 5]” has an IC50 [1, 8] of 4.25 ± 1.15 µM, an IC50 [1, 7] of 4.09 ± 1.97 µM and an IC50 [2] of 3.4 ± 1.3 µM. The IC50 [3] was 2.7 ± 0.55 µM, the “expression of catalase and SMAC diablo proteins” value [4] was “decrease” and the “percentage of Annexin V stained cells in comparison to the control” value (MCF-7 cancer cell line [5]) was “increase”. The “type of cell death induced” value (MCF-7 cancer cell line [5]) was “apoptosis” and the “effect on cytoskeleton (F-actin filaments)” value (MCF-7 cancer cell line [6]) was “cytoskeleton loses its organization”.
For “[(1,1′-{1,1′-(1,1′-{2,2′-Bipyridine-4,4′-diylbis(methylene)}bis(oxy)bis(1-oxopropane-2,1-diyl))bis(poly(lactic acid)-yl))}bis(oxy)bis(1-oxopropane-2,1-diyl)di(2S,3S,4S,5R,6R)-3,4,5,6-tetrahydroxyoxane-2-carboxylate)-k^2N,N′](triphenylphosphane)(η^5-cyclopentadienyl)-ruthenium(II) triflate [Compound 6]”, the IC50 [1, 8] was 5 ± 1.65 µM, the IC50 [1, 7] was 4.62 ± 1.15 µM and the IC50 [2] was 2.2 ± 0.85 µM. The IC50 [3] was 5.96 ± 3.25 µM, the “expression of catalase and SMAC diablo proteins” value [4] was “decrease” and the “percentage of Annexin V stained cells in comparison to the control” value (MCF-7 cancer cell line [5]) was “increase”. For the same molecule, the “type of cell death induced” value (MCF-7 cancer cell line [5]) was “apoptosis” and the “effect on cytoskeleton (F-actin filaments)” value (MCF-7 cancer cell line [6]) was “cytoskeleton loses its organization”.
